Test systems include HCT-15 colon; SK-MEL-2 melanoma; HCT-116 colon; MOLT-4 leukemia; SW-620 colon; U251 CNS; NCI-H522 lung; OVCAR-3 ovarian; KM12 colon; IGROV1 ovarian; BT-549 breast.
Holding throughout (test): growth of human tumour cells (NCI), 48 h

SMILES strings stand for the structures.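 48-hour exposure; five concentrations; linearly interpolated endpoints. TGI: total growth inhibition.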

For the molecule `CCC1(N=[N+]=[N-])C(=O)Nc2cc(C)ccc2C1=O` (stereo not drawn), the TGI with HCT-15 colon, in the test with SK-MEL-2 melanoma, in the test with HCT-116 colon, with MOLT-4 leukemia, in the test with SW-620 colon and in the test with U251 CNS was more than 100 µM each time. The TGI was 15.6 µM with NCI-H522 lung, more than 100 µM in the test with OVCAR-3 ovarian, more than 100 µM in the test on KM12 colon and more than 100 µM in the test on IGROV1 ovarian.
Regarding `Cc1cc(C)nc(Nc2nc3ccc([N+](=O)[O-])cc3[nH]2)n1`, the TGI with HCT-15 colon, in the test on SK-MEL-2 melanoma, in the test on HCT-116 colon, in the test with MOLT-4 leukemia, in the test with SW-620 colon and in the test with U251 CNS was more than 100 µM each time. The TGI with NCI-H522 lung, in the test with OVCAR-3 ovarian, in the test on KM12 colon and in the test with IGROV1 ovarian was more than 100 µM each time.
Turning to `COc1cc2[nH]c(-c3cccc(N(C)C)c3)cc(=O)c2cc1OC`, the TGI in the test with HCT-15 colon is more than 64.6 µM; in the test with HCT-116 colon it was more than 100 µM; with MOLT-4 leukemia, more than 100 µM; in the test with SW-620 colon it was more than 100 µM; in the test on NCI-H522 lung, 17.6 µM; in the test with KM12 colon, more than 60.1 µM. Besides, the TGI in the test on IGROV1 ovarian was more than 100 µM.
As to `CCN(CC)CCS(=O)c1c2cc(OC)ccc2nc2ccc(OC)cc12` (stereo not drawn), the TGI with HCT-15 colon was 16.6 µM; in the test on SK-MEL-2 melanoma, 40.3 µM; with HCT-116 colon it was 4.55 µM; with MOLT-4 leukemia, more than 21.2 µM; in the test with SW-620 colon, more than 21.9 µM; with BT-549 breast, 31.2 µM. Besides, the TGI is more than 60.6 µM with U251 CNS; 1.38 µM with NCI-H522 lung; 15.6 µM in the test on OVCAR-3 ovarian; more than 57.5 µM with KM12 colon; 8.52 µM in the test on IGROV1 ovarian.
On to `O=C(CCCn1ccnc1[N+](=O)[O-])NCCn1ccnc1`, for which the TGI with HCT-15 colon, with SK-MEL-2 melanoma, in the test on HCT-116 colon, in the test with MOLT-4 leukemia, with SW-620 colon and in the test on BT-549 breast was more than 100 µM each time. The TGI in the test with U251 CNS, with NCI-H522 lung, with OVCAR-3 ovarian, in the test on KM12 colon and with IGROV1 ovarian was more than 100 µM in each case.
Regarding `[N-]=[N+]=NC1C(Br)C(=O)NC(=O)N1[C@H]1C[C@H](O)[C@@H](CO)O1` (stereo partly drawn), the TGI in the test on SK-MEL-2 melanoma, in the test with MOLT-4 leukemia, in the test on SW-620 colon, in the test with U251 CNS, in the test with NCI-H522 lung and with OVCAR-3 ovarian was more than 100 µM each time. The TGI with KM12 colon and with IGROV1 ovarian was more than 100 µM in each case.
For the molecule `CC(=O)Nc1ccc(C2[C@H]3C(=O)N(c4ccc(Cc5ccc(N6C(=O)[C@@H]7ON(c8ccccc8)C(c8ccc(NC(C)=O)cc8)[C@@H]7C6=O)cc5)cc4)C(=O)[C@H]3ON2c2ccccc2)cc1` (stereo partly drawn), the TGI in the test with HCT-15 colon, with SK-MEL-2 melanoma, in the test with HCT-116 colon, in the test on MOLT-4 leukemia, in the test on SW-620 colon and in the test on U251 CNS was more than 100 µM each time. Moreover, the TGI with NCI-H522 lung, in the test with OVCAR-3 ovarian, in the test on KM12 colon and in the test with IGROV1 ovarian was more than 100 µM in each case.
Consider `CC(=O)OCC1OC(n2c(=O)n(-c3ccccc3)c(=O)c3ccccc32)C(OC(C)=O)C(OC(C)=O)C1OC(C)=O` (stereo not drawn), for which the TGI in the test with HCT-15 colon, with SK-MEL-2 melanoma, in the test on HCT-116 colon, in the test with MOLT-4 leukemia, with SW-620 colon and in the test with U251 CNS was more than 100 µM in each case. For the same molecule, the TGI in the test on NCI-H522 lung, with OVCAR-3 ovarian, with KM12 colon and with IGROV1 ovarian was more than 100 µM throughout.
As to `O=c1cc(-c2cccc(OC(F)(F)F)c2)[nH]c2cc3c(cc12)OCO3`, the TGI in the test on HCT-15 colon was 2.66 µM; in the test with SK-MEL-2 melanoma it was 0.628 µM; with HCT-116 colon it was 34.6 µM; with MOLT-4 leukemia, more than 100 µM; with SW-620 colon it was more than 100 µM; in the test with BT-549 breast it was 33.5 µM. Moreover, the TGI with U251 CNS was 0.188 µM; in the test with NCI-H522 lung it was more than 100 µM; in the test with OVCAR-3 ovarian it was 3.92 µM; with KM12 colon, more than 100 µM; in the test on IGROV1 ovarian, 16.3 µM.
Consider `COc1ccc(CN(CCc2c[nH]c3ccccc23)Cc2ccc(OC)cc2)cc1`, for which the TGI in the test on HCT-15 colon is more than 100 µM; with SK-MEL-2 melanoma, 8.29 µM; in the test with MOLT-4 leukemia it was more than 100 µM; in the test on SW-620 colon, more than 22 µM; in the test with BT-549 breast, 11.4 µM; in the test on NCI-H522 lung it was 8.77 µM. For the same molecule, the TGI was determined as 9.25 µM in the test with OVCAR-3 ovarian, 13.9 µM in the test on KM12 colon and 9.49 µM in the test on IGROV1 ovarian.
As for `CCOP(=O)(OCC)/C(C#N)=C/c1ccco1`, the TGI with HCT-15 colon, in the test with SK-MEL-2 melanoma, in the test on HCT-116 colon, in the test with MOLT-4 leukemia, with SW-620 colon and in the test with U251 CNS was more than 100 µM throughout. The TGI in the test on NCI-H522 lung, in the test on KM12 colon and in the test with IGROV1 ovarian was more than 100 µM throughout.
Regarding `O=C1CCC2SC1CCC2=O`, the TGI in the test on HCT-15 colon, in the test with SK-MEL-2 melanoma, with HCT-116 colon, in the test on MOLT-4 leukemia, with SW-620 colon and in the test with BT-549 breast was more than 100 µM throughout. For the same molecule, the TGI with U251 CNS, in the test on NCI-H522 lung, with OVCAR-3 ovarian, in the test on KM12 colon and with IGROV1 ovarian was more than 100 µM throughout.
As to `CCOC(=O)CC[C@@H](NC(=O)c1ccc(N[C@@H]2c3cc4c(cc3C(c3cc(OC)c(O)c(OC)c3)C3C(=O)OC[C@@H]32)OCO4)cc1)C(=O)OCC` (stereo partly drawn), the TGI with HCT-15 colon was 0.233 µM; with SK-MEL-2 melanoma, 0.235 µM; in the test with MOLT-4 leukemia it was more than 10 µM; in the test on U251 CNS it was 0.123 µM; in the test on OVCAR-3 ovarian it was 0.37 µM; with IGROV1 ovarian, 0.32 µM.

Source of the values: PubChem BioAssay (NCI).
